Consider 71 compounds from US7022736B2, “Enzyme inhibitors” (Istituto Di Ricerche Di Biologia Molecolare P Angeletti SpA, priority 1998, dated 2006).

The structures appear in SMILES notation. Where two headings read alike, the source gives them in different places.

The test has as its target T1, HCV RdRp (NS5B RNA-dependent RNA polymerase) (Hepatitis C virus genotype 1b, UniProt P26663).
T1 construct: The HCV NS5B protein is the viral RdRp; made in house; host or cells: insect cells infected with recombinant baculovirus
Put plainly: Inhibition of hepatitis C virus RdRp (poly(A)/oligo(U), [3H]UTP incorporation). It counts as biochemical. On the procedure:
In initial tests, the compounds were tested to see if they were effective as inhibitors of the RNA-dependent RNA polymerase (RdRp) of hepatitis C virus (HCV). The HCV NS5B protein is the viral RdRp; compounds capable of interfering with the activity of this enzyme are thus expected to block viral replication.
Test for Inhibition of Hepatatis C Virus RdRp
WO96/37619 describes the production of recombinant HCV RdRp from insect cells infected with recombinant baculovirus encoding the enzyme. […] The reference describes a polymerisation assay using poly (A) as a template and oligo (U) as a primer. Incorporation of tritiated UTP is quantified by measuring acid-insoluble radioactivity. The present inventors have employed this assay to screen the various compounds described above as inhibitors of HCV RdRp and other virally encoded polymerases.
Incorporation of radioactive UMP was measured as follows. The standard reaction (100 μl) was carried out in a buffer containing 20 mM tris/HCl pH 7.5, 5 mM MgCl2, 1 mM DTT, 50 mM NaCl, 1 mM EDTA, 2 OU Rnasin (Promega), 0.05% Triton X-100, 1 μCi[^3H] UTP (40 Ci/mmol,NEN), 10 μM UTP and 10 μg/ml poly (A). Oligo (U)12 (1 μg/ml, Genset) was added as a primer. The final NSSB enzyme concentration was 20 nM. After 1 hour incubation at 22° C. the reaction was stopped by adding 100 μl of 20% TCA and applying samples to DE81 filters. The filters were washed thoroughly with 5% TCA containing 1M Na2HPO4/NaH2PO4, pH 7.0, rinsed with water and then ethanol, air dried, and the filter-bound radioactivity was measured in the scintillation counter. By carrying out the reaction in the presence of various concentrations of each of the compounds set out above it was possible to determine IC50 values for each compound with the formula: % residual activity=100/(1+[I]/IC50)^s where [I] is the inhibitor concentration and “s” is the slope of the inhibition curve. Test for Inhibition of Hepatitis B Virus Polymerase

Where [1] appears, read: Tables I-VIII, 20 nM NS5B, 1 hour at 22° C., read-out: IC 50 (μM), HCV-polymerase.
[2] abbreviates: Tables IXa-IXc, unit inferred, read-out: HCV (IC50).

T1 sequence (P26663 2420-3010): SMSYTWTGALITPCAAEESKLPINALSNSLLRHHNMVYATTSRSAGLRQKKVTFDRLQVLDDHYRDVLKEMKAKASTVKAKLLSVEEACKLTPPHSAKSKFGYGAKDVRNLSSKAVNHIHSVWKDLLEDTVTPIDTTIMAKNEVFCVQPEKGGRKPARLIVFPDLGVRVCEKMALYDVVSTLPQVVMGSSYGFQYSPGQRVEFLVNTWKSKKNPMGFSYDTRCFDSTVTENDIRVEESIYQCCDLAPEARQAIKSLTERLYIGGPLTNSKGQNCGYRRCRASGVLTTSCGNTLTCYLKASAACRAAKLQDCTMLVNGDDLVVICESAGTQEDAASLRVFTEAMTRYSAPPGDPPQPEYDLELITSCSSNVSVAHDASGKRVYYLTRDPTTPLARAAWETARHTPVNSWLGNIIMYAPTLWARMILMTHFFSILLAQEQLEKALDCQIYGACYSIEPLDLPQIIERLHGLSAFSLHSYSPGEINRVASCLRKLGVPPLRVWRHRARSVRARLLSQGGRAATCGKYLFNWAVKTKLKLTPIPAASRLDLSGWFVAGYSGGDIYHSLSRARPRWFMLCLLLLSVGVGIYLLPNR

For the compound `O=C(O)C(O)=CC(=O)C1(c2ccccc2)CCN(S(=O)(=O)c2cccc3cccnc23)CC1` [Example 248], the IC50 under setting [1] came out at 10 µM. As to `CCC(C)C(=O)/C=C(\O)C(=O)O` (stereo not shown) [Example 240], the IC50 under setting [1] was determined as 18 µM. For `O=C(O)C(O)=CC(=O)c1cccc(C2=CCCc3ccccc32)c1` [Example 47], the IC50 under setting [1] was 20.7 µM. Same read-out and setting: next, `COc1ccc(Cl)cc1S(=O)(=O)Nc1cccc(C(=O)C=C(O)C(=O)O)c1` [Example 129]: 1.6 µM; `Cc1cc(Cl)cc(Cl)c1S(=O)(=O)Nc1cccc(C(=O)C=C(O)C(=O)O)c1` [Example 150]: 2.3 µM; `O=C(O)C(O)=CC(=O)c1sccc1Sc1ccccc1` [Example 209]: 12.6 µM.

Consider `O=C(O)C(O)=CC(=O)c1cccc(OCc2ccc(F)cc2Cl)c1` [Example 87], for which the IC50 under setting [1] was determined as 2.3 µM. Still for that read-out and setting: for `CCCSc1ccccc1C(=O)C=C(O)C(=O)O` [Example 34] the value was 9.6 µM; for `O=C(O)C(O)=CC(=O)c1ccsc1Cc1ccc(F)cc1` [Example 228], 17.8 µM.

As for `O=C(O)C(O)=CC(=O)c1cccc(Cn2nc3ccccc3n2)c1` [Example 153], under setting [1], the IC50 amounted to 19 µM.

On to `O=C(O)C(O)=CC(=O)c1sccc1Br` [Example 199], for which the IC50 under setting [1] was determined as 17 µM. Still for that read-out and setting: next, `Cc1cc(C)c(S(=O)(=O)Nc2cccc(C(=O)C=C(O)C(=O)O)c2)c(C)c1` [Example 146]: 15 µM; `O=C(O)C(O)=CC(=O)c1cccc(OCc2cc(C(=O)O)ccc2Cl)c1` [Example 98]: 1 µM. On the same count and under the same terms, for `O=C(O)C(O)=CC(=O)c1cccc(Cc2ccc(F)cc2)c1` [Example 46] the value was 30.1 µM; for `N#CCCCOc1cccc(C(=O)C=C(O)C(=O)O)c1` [Example 13], 2.6 µM. Same read-out and setting: for `O=C(O)C(O)=CC(=O)c1cccc(NS(=O)(=O)c2cccc(Cl)c2Cl)c1` [Example 118] the value was 0.2 µM. For `O=C(O)C(O)=CC(=O)c1ccccc1Oc1ccc(F)cc1` [Example 37], the IC50 under setting [1] was determined as 18 µM.

`Cc1cc(COc2cccc(C(=O)C=C(O)C(=O)O)c2)no1` [Example 106]: under setting [1], the IC50 is 6.8 µM.

On to `O=C(O)C(O)=CC(=O)c1cccc(NS(=O)(=O)c2ccc(Cl)c([N+](=O)[O-])c2)c1` [Example 141], for which the IC50 under setting [1] stood at 0.56 µM. On the same count and under the same terms, for `O=C(O)/C(O)=C/C(=O)C1(Cc2ccc(Cl)cc2)CCCN(Cc2ccccc2)C1` (stereo not shown) [Example 247] the value was 45 µM.

In the case of `CS(=O)(=O)Nc1cccc(C(=O)C=C(O)C(=O)O)c1` [Example 75], the IC50 under setting [1] is 19.2 µM.

As to `O=C(O)C(O)=CC(=O)c1cccc(OCc2cc(-c3ccccc3)on2)c1` [Example 103], the IC50 was 6 µM under setting [1] and 6 µM under setting [2]. As for `O=C(O)C(O)=CC(=O)c1ccc(Cl)s1` [Example 193], the IC50 under setting [1] amounted to 12 µM. The same measure, in the same setting: for `CCCCOc1ccccc1C(=O)C=C(O)C(=O)O` [Example 52] the value was 10 µM; for `N#Cc1cccc(C(=O)Nc2cccc(C(=O)C=C(O)C(=O)O)c2)c1` [Example 70], 9.2 µM. Same read-out and setting: for `O=C(O)C(O)=CC(=O)c1ccc(Cl)cc1` [Example 166] the value was 20 µM. On the same count and under the same terms, for `O=C(O)C(O)=CC(=O)c1cccc(COc2ccccc2)c1` [Example 110] the value was 30 µM; for `N#CCCCOc1ccc(C#CCCCCl)cc1C(=O)C=C(O)C(=O)O` [Example 56], 23.6 µM; for `O=C(O)C(O)=CC(=O)c1cccc(NS(=O)(=O)c2c(Cl)sc(Cl)c2Br)c1` [Example 130], 0.14 µM. Turning to `O=C(O)C(O)=CC(=O)c1cccc(NS(=O)(=O)c2ccc(Cl)s2)c1` [Example 102], the IC50 under setting [1] came out at 1.5 µM. The same measure, in the same setting: next, `O=C(O)C(O)=CC(=O)c1sccc1Cc1ccc(F)cc1` [Example 208]: 11.6 µM.

Regarding `Cc1ccc(Oc2ccccc2C(=O)C=C(O)C(=O)O)cc1` [Example 39], the IC50 under setting [1] is 22 µM. The same measure, in the same setting: next, `CCOC(=O)c1ccccc1S(=O)(=O)Nc1cccc(C(=O)C=C(O)C(=O)O)c1` [Example 128]: 24 µM; `O=C(O)C(O)=CC(=O)c1ccc(F)cc1` [Example 163]: 26 µM. For `O=C(O)C(O)=CC(=O)c1ccccc1N(Cc1ccccc1)Cc1ccccc1` [Example 42], the IC50 under setting [1] was determined as 16.6 µM. The same measure, in the same setting: next, `Cc1ccc(S(=O)(=O)Nc2cccc(C(=O)C=C(O)C(=O)O)c2)cc1Cl` [Example 137]: 0.9 µM.

For `O=C(O)C(O)=CC(=O)c1cccc(OC2CCCCC2)c1` [Example 11], the IC50 under setting [1] worked out at 7.08 µM. For the compound `O=C(O)C(O)=CC(=O)c1cccc(NS(=O)(=O)c2ccccc2)c1` [Example 67], the IC50 under setting [1] was found to be 16 µM.

On to `O=C(O)C(O)=CC(=O)c1sccc1Cl` [Example 194], for which the IC50 under setting [1] came out at 16 µM.

Regarding `O=C(O)C(O)=CC(=O)C1=CCCCC1` [Example 254], the IC50 under setting [1] is 14 µM.

As for `O=C(O)C(O)=CC(=O)C1CCCCC1` [Example 256], the IC50 under setting [1] came to 25 µM. Still for that read-out and setting: next, `O=C(O)C(O)=CC(=O)c1cccc(S(=O)(=O)Nc2ccc(Cl)cc2)c1` [Example 145]: 1.2 µM; `O=C(O)C(O)=CC(=O)c1cc(Cl)sc1Cl` [Example 224]: 50 µM; `O=C(O)C(O)=CC(=O)c1cccc(Cc2ccc(Cl)cc2)c1` [Example 45]: 12.9 µM. The same measure, in the same setting: for `Cc1cc(S(=O)(=O)Nc2cccc(C(=O)C=C(O)C(=O)O)c2)c(C)cc1Cl` [Example 147] the value was 1.3 µM; for `O=C(O)C(O)=CC(=O)c1cc2c(s1)CCCC2c1ccccc1` (stereo not shown) [Example 214], 17 µM; for `N#Cc1ccc(COc2ccccc2C(=O)C=C(O)C(=O)O)cc1` [Example 25], 28 µM. With `N#CCCCOc1ccc(Br)cc1C(=O)C=C(O)C(=O)O` [Example 54], the IC50 under setting [1] is 2.3 µM. Same read-out and setting: for `O=C(O)C(O)=CC(=O)c1cccc(NS(=O)(=O)c2ccc(F)cc2Cl)c1` [Example 138] the value was 1.1 µM.

Take `N#CC(CCOc1ccccc1C(=O)C=C(O)C(=O)O)(c1ccccc1)c1ccccc1` [Example 69]: the IC50 under setting [1] stood at 14 µM. Same read-out and setting: for `N#CCCCOc1ccc(/C=C/c2ccccc2)cc1C(=O)C=C(O)C(=O)O` [Example 57] the value was 2.1 µM; for `O=C(O)C(O)=CC(=O)c1cccc(NS(=O)(=O)c2cccc([N+](=O)[O-])c2)c1` [Example 142], 0.4 µM.

On to `O=C(O)C(O)=CC(=O)c1ccsc1Sc1cccc(Cl)c1` [Example 235], for which the IC50 under setting [1] was determined as 7.5 µM. Same read-out and setting: next, `COc1cccc(C(=O)C=C(O)C(=O)O)c1` [Example 60]: 40 µM. Same read-out and setting: next, `O=C(O)C(O)=CC(=O)c1cccc(NS(=O)(=O)c2c(Cl)cc(C(F)(F)F)cc2Cl)c1` [Example 140]: 1 µM. Same read-out and setting: next, `O=C(O)C(O)=CC(=O)c1sccc1Cc1cccc(Cl)c1` [Example 212]: 7.5 µM; `O=C(O)C(O)=CC(=O)c1cccc(NS(=O)(=O)c2cccs2)c1` [Example 101]: 7 µM. In the case of `O=C(O)C(O)=CC(=O)c1cccc(NS(=O)(=O)c2cccc(Cl)c2)c1` [Example 131], the IC50 under setting [1] came out at 0.78 µM.

Take `Nc1cccc(C(=O)C=C(O)C(=O)O)c1` [Example 62]: under setting [1], the IC50 was determined as 10 µM.

Consider `Cn1cc(C(=O)C=C(O)C(=O)O)cc1Cc1cccc(F)c1` [Example 221], for which, under setting [1], the IC50 is 20.6 µM. Consider `O=C(O)C(O)=CC(=O)c1ccccc1C(F)(F)F` [Example 6], for which the IC50 under setting [1] worked out at 18 µM.

`O=C(O)C(O)=CC(=O)c1cccc(NS(=O)(=O)c2ccccc2Br)c1` [Example 77]: under setting [1], the IC50 was found to be 4.8 µM. Still for that read-out and setting: next, `O=C(O)C(O)=CC(=O)c1cccn1Cc1ccc(F)cc1` [Example 180]: 93 µM; `Cc1cccc(C(C)Oc2cccc(C(=O)C=C(O)C(=O)O)c2)c1C#N` (stereo not shown) [Example 122]: 2 µM; `O=C(O)C(O)=CC(=O)c1cccc(NS(=O)(=O)c2ccc(F)c(Cl)c2)c1` [Example 143]: 0.45 µM.

Turning to `O=C(O)C(O)=CC(=O)c1ccc(Br)s1` [Example 198], the IC50 came out at 7.9 µM under setting [1] and 7.9 µM under setting [2]. In the case of `O=C(O)C(O)=CC(=O)c1cccc(Cc2cccc(Cl)c2)c1` [Example 43], the IC50 under setting [1] worked out at 20 µM.

Regarding `O=C(O)C(O)=CC(=O)c1cccc(Oc2ccccc2)c1` [Example 44], the IC50 under setting [1] is 18.5 µM.

Regarding `O=C(O)COc1cccc(C(=O)C=C(O)C(=O)O)c1` [Example 14], under setting [1], the IC50 was found to be 26 µM.

For `O=C(O)C(O)=CC(=O)C1(c2ccccc2)CCN(C(=O)N(c2ccccc2)c2ccccc2)CC1` [Example 249], under setting [1], the IC50 turned out to be 60 µM.

For the compound `O=C(O)C(O)=CC(=O)c1cccn1Cc1ccccc1F` [Example 182], under setting [1], the IC50 stood at 30 µM.
